Results on three compounds are retold here after patent US8017775B2, “1-2-dihydroquinoline derivative having glucocorticoid receptor binding activity” (Santen Pharmaceutical Co., Ltd., priority 2005, dated 2011).

SMILES strings stand for the structures. Bounds are passed on as bounds.

The target of the assay is T1, Recombinant human GR (Homo sapiens, UniProt P04150).
T1 construct: purchased Invitrogen P2816
T1 sequence (P04150 1-777): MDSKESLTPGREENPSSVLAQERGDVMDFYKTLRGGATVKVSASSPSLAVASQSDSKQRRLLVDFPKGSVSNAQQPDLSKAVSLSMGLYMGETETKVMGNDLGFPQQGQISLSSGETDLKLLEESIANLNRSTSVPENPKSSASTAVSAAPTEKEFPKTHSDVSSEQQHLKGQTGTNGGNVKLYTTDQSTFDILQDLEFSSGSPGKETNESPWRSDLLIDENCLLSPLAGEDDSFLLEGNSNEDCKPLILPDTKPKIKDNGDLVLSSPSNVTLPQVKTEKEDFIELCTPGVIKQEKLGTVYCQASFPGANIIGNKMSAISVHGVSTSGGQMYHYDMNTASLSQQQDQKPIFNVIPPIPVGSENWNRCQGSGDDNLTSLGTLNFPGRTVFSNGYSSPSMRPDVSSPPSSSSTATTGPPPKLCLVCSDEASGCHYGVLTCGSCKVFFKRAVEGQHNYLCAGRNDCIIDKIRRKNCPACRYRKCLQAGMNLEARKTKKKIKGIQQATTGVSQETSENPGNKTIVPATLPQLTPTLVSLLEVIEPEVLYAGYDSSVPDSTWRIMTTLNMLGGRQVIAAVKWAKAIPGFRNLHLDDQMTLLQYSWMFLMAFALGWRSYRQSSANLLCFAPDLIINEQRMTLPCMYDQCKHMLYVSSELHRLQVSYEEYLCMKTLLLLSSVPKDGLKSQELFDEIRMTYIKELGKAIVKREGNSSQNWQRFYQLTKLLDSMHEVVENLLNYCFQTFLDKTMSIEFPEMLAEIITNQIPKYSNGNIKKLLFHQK
The assay is described as follows: GR competitor assay by fluorescence polarization (GR binding ratio). The following applies: positive control 2 mM dexamethasone, a GR binding ratio of 100% or more is indicated by 100%. A general note: In fluorescence polarisation assays a small probe gives low polarisation when free and higher when bound to something large.

Take `COc1cc(F)ccc1-c1ccc2c(c1CNc1cc(F)ccc1C)C(C)=CC(C)(C)N2` [Compound 6-57, 6-(4-Fluoro-2-methoxyphenyl)-5-(5-fluoro-2-methylphenylaminomethyl)-2,2,4-trimethyl-1,2-dihydroquinoline]: the “GR Binding ratio (%)” value is listed as at least 100%.
Take `COc1cc(F)ccc1-c1ccc2c(c1COC(=O)c1ccc(Br)s1)C(C)=CC(C)(C)N2` [Compound 12-25, 5-[(5-Bromothiophen-2-yl)carbonyloxymethyl]-6-(4-fluoro-2-methoxyphenyl)-2,2,4-trimethyl-1,2-dihydroquinoline]: the “GR Binding ratio (%)” value is at least 100%.
The result for `COC(=O)Cc1ccccc1OCc1c(-c2ccc(F)cc2OC)ccc2c1C(C)=CC(C)(C)N2` [Compound 14-1, 6-(4-Fluoro-2-methoxyphenyl)-5-(2-methoxycarbonylmethylphenoxymethyl)-2,2,4-trimethyl-1,2-dihydroquinoline] reads at least 100%.
